From the NIST ThermoML archive (doi:10.1016/j.jct.2008.10.007)
± gives the expanded uncertainty stated by the source.

Legend:
[1] = excess molar enthalpy (molar enthalpy of mixing); xn = mol fraction of the nth substance listed; conditions: 298.15 K, 101 kPa, Liquid, Calvet calorimetry
[2] = xn = mol fraction of the nth substance listed; conditions: 298.15 K, 101 kPa, Liquid, Vibrating tube method

CCCOC(=O)CCC [propyl butanoate] + ClCCCl
Conditions | excess molar enthalpy [kcal/mol] | mass density [kg/m3]
[1], x1 = 0.0365 | -0.00837 ± 0.000239 | –
[1], x1 = 0.0999 | -0.0229 ± 0.000717 | –
[1], x1 = 0.1556 | -0.0363 ± 0.000956 | –
[1], x1 = 0.2176 | -0.0526 ± 0.0012 | –
[1], x1 = 0.281 | -0.0684 ± 0.00143 | –
[1], x1 = 0.343 | -0.0851 ± 0.00191 | –
[1], x1 = 0.3848 | -0.0951 ± 0.00215 | –
[1], x1 = 0.4055 | -0.098 ± 0.00215 | –
[1], x1 = 0.4534 | -0.106 ± 0.00239 | –
[1], x1 = 0.5266 | -0.109 ± 0.00239 | –
[1], x1 = 0.6369 | -0.0997 ± 0.00215 | –
[1], x1 = 0.7616 | -0.0746 ± 0.00167 | –
[1], x1 = 0.8961 | -0.0399 ± 0.000956 | –
[2], x1 = 0.0329 | – | 1222.22 ± 7.7
[2], x1 = 0.065 | – | 1200.67 ± 7
[2], x1 = 0.1029 | – | 1176.79 ± 6.3
[2], x1 = 0.1385 | – | 1155.7 ± 5.7
[2], x1 = 0.1815 | – | 1132.09 ± 5
[2], x1 = 0.2225 | – | 1110.75 ± 4.5
[2], x1 = 0.2703 | – | 1087.77 ± 3.9
[2], x1 = 0.3191 | – | 1065.93 ± 3.4
[2], x1 = 0.3743 | – | 1043.05 ± 2.8
[2], x1 = 0.4285 | – | 1022.26 ± 2.4
[2], x1 = 0.4904 | – | 1000.19 ± 1.9
[2], x1 = 0.556 | – | 978.67 ± 1.6
[2], x1 = 0.628 | – | 956.91 ± 1.2
[2], x1 = 0.7087 | – | 934.51 ± 0.89
[2], x1 = 0.7989 | – | 911.8 ± 0.61
[2], x1 = 0.8938 | – | 890.06 ± 0.4
[2], x1 = 1 | – | 867.9 ± 0.23

CCCOC=O [propyl methanoate] + ClCCCCCCCl
Conditions | excess molar enthalpy [kcal/mol] | mass density [kg/m3]
[1], x1 = 0.0891 | 0.021 ± 0.000478 | –
[1], x1 = 0.2066 | 0.0373 ± 0.000956 | –
[1], x1 = 0.3241 | 0.049 ± 0.0012 | –
[1], x1 = 0.4164 | 0.0523 ± 0.0012 | –
[1], x1 = 0.4832 | 0.0504 ± 0.0012 | –
[1], x1 = 0.5353 | 0.0473 ± 0.0012 | –
[1], x1 = 0.5847 | 0.0433 ± 0.000956 | –
[1], x1 = 0.6323 | 0.039 ± 0.000956 | –
[1], x1 = 0.6975 | 0.0323 ± 0.000717 | –
[1], x1 = 0.7658 | 0.0249 ± 0.000717 | –
[1], x1 = 0.8389 | 0.0165 ± 0.000478 | –
[1], x1 = 0.9059 | 0.00908 ± 0.000239 | –
[1], x1 = 0.9621 | 0.00382 ± 0.000239 | –
[2], x1 = 0.0861 | – | 1054 ± 5.6
[2], x1 = 0.1676 | – | 1044.21 ± 5.1
[2], x1 = 0.2459 | – | 1034.25 ± 4.7
[2], x1 = 0.3157 | – | 1024.9 ± 4.3
[2], x1 = 0.3867 | – | 1014.88 ± 3.9
[2], x1 = 0.4515 | – | 1005.28 ± 3.6
[2], x1 = 0.5124 | – | 995.82 ± 3.3
[2], x1 = 0.6287 | – | 976.43 ± 2.8
[2], x1 = 0.6818 | – | 966.95 ± 2.6
[2], x1 = 0.7826 | – | 947.72 ± 2.2
[2], x1 = 0.8311 | – | 937.83 ± 2.1
[2], x1 = 0.8777 | – | 927.92 ± 1.9
[2], x1 = 0.9609 | – | 909.1 ± 1.7
[2], x1 = 1 | – | 899.81 ± 1.6

CCCOC(=O)CCC [propyl butanoate] + ClCCCCCCCl
Conditions | excess molar enthalpy [kcal/mol] | mass density [kg/m3]
[1], x1 = 0.0619 | -0.00526 ± 0.000239 | –
[1], x1 = 0.1445 | -0.011 ± 0.000478 | –
[1], x1 = 0.2343 | -0.0182 ± 0.000478 | –
[1], x1 = 0.3207 | -0.0258 ± 0.000717 | –
[1], x1 = 0.3911 | -0.0327 ± 0.000717 | –
[1], x1 = 0.4594 | -0.0378 ± 0.000956 | –
[1], x1 = 0.5174 | -0.0404 ± 0.000956 | –
[1], x1 = 0.5559 | -0.0411 ± 0.000956 | –
[1], x1 = 0.6181 | -0.0402 ± 0.000956 | –
[1], x1 = 0.6903 | -0.037 ± 0.000956 | –
[1], x1 = 0.7651 | -0.0315 ± 0.000717 | –
[1], x1 = 0.849 | -0.0229 ± 0.000478 | –
[1], x1 = 0.9334 | -0.012 ± 0.000478 | –
[2], x1 = 0.1123 | – | 1041.34 ± 4.8
[2], x1 = 0.1686 | – | 1030.2 ± 4.2
[2], x1 = 0.2265 | – | 1018.77 ± 3.7
[2], x1 = 0.2841 | – | 1007.46 ± 3.2
[2], x1 = 0.3424 | – | 995.99 ± 2.8
[2], x1 = 0.4025 | – | 984.2 ± 2.4
[2], x1 = 0.4598 | – | 973.01 ± 2
[2], x1 = 0.5766 | – | 950.16 ± 1.4
[2], x1 = 0.6959 | – | 926.91 ± 0.91
[2], x1 = 0.755 | – | 915.37 ± 0.73
[2], x1 = 0.8145 | – | 903.79 ± 0.57
[2], x1 = 0.8778 | – | 891.49 ± 0.43
[2], x1 = 0.9367 | – | 880.14 ± 0.32
[2], x1 = 1 | – | 867.9 ± 0.23

CCCOC(=O)CCC [propyl butanoate] + ClCCCCl
Conditions | excess molar enthalpy [kcal/mol] | mass density [kg/m3]
[1], x1 = 0.0386 | -0.00478 ± 0.000239 | –
[1], x1 = 0.0938 | -0.0127 ± 0.000478 | –
[1], x1 = 0.159 | -0.0229 ± 0.000478 | –
[1], x1 = 0.2273 | -0.0375 ± 0.000956 | –
[1], x1 = 0.2973 | -0.0507 ± 0.0012 | –
[1], x1 = 0.3649 | -0.0626 ± 0.00143 | –
[1], x1 = 0.4253 | -0.0712 ± 0.00167 | –
[1], x1 = 0.5121 | -0.081 ± 0.00167 | –
[1], x1 = 0.5732 | -0.0798 ± 0.00167 | –
[1], x1 = 0.6582 | -0.0753 ± 0.00167 | –
[1], x1 = 0.748 | -0.0652 ± 0.00143 | –
[1], x1 = 0.8421 | -0.0464 ± 0.000956 | –
[1], x1 = 0.9299 | -0.0234 ± 0.000717 | –
[2], x1 = 0.0366 | – | 1161.49 ± 6.9
[2], x1 = 0.0766 | – | 1143.1 ± 6.2
[2], x1 = 0.1186 | – | 1124.61 ± 5.6
[2], x1 = 0.1603 | – | 1107.03 ± 5
[2], x1 = 0.2067 | – | 1088.41 ± 4.4
[2], x1 = 0.2552 | – | 1069.83 ± 3.9
[2], x1 = 0.3066 | – | 1051.21 ± 3.3
[2], x1 = 0.3595 | – | 1032.94 ± 2.9
[2], x1 = 0.4152 | – | 1014.72 ± 2.4
[2], x1 = 0.5357 | – | 978.32 ± 1.6
[2], x1 = 0.5999 | – | 960.48 ± 1.3
[2], x1 = 0.6691 | – | 942.33 ± 1
[2], x1 = 0.7439 | – | 923.8 ± 0.77
[2], x1 = 0.8228 | – | 905.44 ± 0.55
[2], x1 = 0.9064 | – | 887.12 ± 0.37
[2], x1 = 1 | – | 867.9 ± 0.23

ClCCCCl [1,3-dichloropropane] + CCCOC(C)=O
Conditions | excess molar enthalpy [kcal/mol] | mass density [kg/m3]
[1], x2 = 0.054 | -0.00908 ± 0.000239 | –
[1], x2 = 0.1279 | -0.0206 ± 0.000478 | –
[1], x2 = 0.2091 | -0.0349 ± 0.000717 | –
[1], x2 = 0.2781 | -0.049 ± 0.0012 | –
[1], x2 = 0.3637 | -0.0624 ± 0.00143 | –
[1], x2 = 0.4401 | -0.0741 ± 0.00167 | –
[1], x2 = 0.5067 | -0.0813 ± 0.00191 | –
[1], x2 = 0.5223 | -0.0829 ± 0.00191 | –
[1], x2 = 0.572 | -0.0837 ± 0.00191 | –
[1], x2 = 0.6457 | -0.0779 ± 0.00167 | –
[1], x2 = 0.738 | -0.0679 ± 0.00143 | –
[1], x2 = 0.8364 | -0.0488 ± 0.0012 | –
[1], x2 = 0.931 | -0.0237 ± 0.000717 | –
[2], x2 = 0.051 | – | 1160.75 ± 6.7
[2], x2 = 0.1013 | – | 1143.09 ± 6
[2], x2 = 0.1519 | – | 1125.74 ± 5.3
[2], x2 = 0.2062 | – | 1107.55 ± 4.6
[2], x2 = 0.2602 | – | 1089.75 ± 4
[2], x2 = 0.314 | – | 1072.51 ± 3.4
[2], x2 = 0.4262 | – | 1037.75 ± 2.5
[2], x2 = 0.5391 | – | 1004.31 ± 1.7
[2], x2 = 0.5986 | – | 987.32 ± 1.4
[2], x2 = 0.6602 | – | 970.1 ± 1.1
[2], x2 = 0.7227 | – | 953.06 ± 0.87
[2], x2 = 0.758 | – | 943.63 ± 0.75
[2], x2 = 0.7981 | – | 933.1 ± 0.63
[2], x2 = 0.8553 | – | 918.23 ± 0.48
[2], x2 = 0.934 | – | 898.35 ± 0.33
